Values of other authors, collected in US20040120995A1, “Transdermal delivery of pergolide” (priority 2003, published 2004).
Structures can show the parent of a compound that is named as a salt. Where two headings read alike, the source gives them in different places.

Details: for Pergolide Blood Serum Level: human subjects

- maximum blood serum level (2-3 hours following a 2.5 mg oral dose): about 500 picograms/ml
- blood serum level (8 hours following a 0.5 mg oral dose): about 60 picograms/ml
- Pergolide Blood Serum Level (oral dose 0.25 milligrams): 47.75 picograms/ml
- Pergolide Blood Serum Level (oral dose 0.50 milligrams): 100.08 picograms/ml
- Pergolide Blood Serum Level (oral dose 1.00 milligrams): 199.33 picograms/ml
- Pergolide Blood Serum Level (oral dose 2.00 milligrams): 398.66 picograms/ml
- Pergolide Blood Serum Level (oral dose 3.00 milligrams): 597.99 picograms/ml
- peak serum concentration (oral dosing 3 mg/24 hours, divided into three doses): approximately 200 pg/ml
Compound: CCCN1C[C@H](CSC)C[C@@H]2c3cccc4[nH]cc(c34)C[C@H]21 [pergolide mesylate]
